In patent US20260365670A1, “EGFR INHIBITORS AND USES THEREOF” (DIZAL (JIANGSU) PHARMACEUTICAL CO., LTD., priority 2022, published 2026):
Where two headings read alike, the source gives them in different places.

Legend:
EGFR L858R/T790M = biological target: T1, EGFR L858R/T790M (Homo sapiens, UniProt P00533, L858R/T790M); assay: Inhibition of EGFR L858R/T790M biochemical enzymatic activity (HTRF); conditions: EGFR L858R-T790M, 1 mM ATP, 1 h, room temperature, read-out: IC50 (nM) @L858R-T790M
T1 construct: purchased Carna Bio
How it was run: (§1)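 Using a high ATP level (1 mM), wild-type and mutant EGFR enzymes were incubated 1 h at room temperature with inhibitor and 1 μM biotinylated TK substrate. Phosphorylation was quantified as the 665/615 nm HTRF ratio. IC50s were derived by logistic fitting.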

EGFR (d746-750 C797S) = biological target: T2, EGFR (d746-750 C797S) (Homo sapiens, UniProt P00533, C797S/DEL746-750); assay: Inhibition of EGFR (d746-750 C797S) biochemical enzymatic activity (HTRF); conditions: EGFR Del19-C797S, 1 mM ATP, 1 h, room temperature, read-out: IC50 (nM) @Del19-C797S
T2 construct: purchased signalchem
How it was run: as §1

A-431 = assay: Cell proliferation GI50, A-431 cells (Table 6); format: cell-based; conditions: Homo sapiens, A-431, A-431 cells
EGFR[T790M/C797S/L858R] = biological target: T3, EGFR[T790M/C797S/L858R] (Homo sapiens, UniProt P00533, C797S/L858R/T790M); assay: Inhibition of EGFR[T790M/C797S/L858R] biochemical enzymatic activity (HTRF); conditions: EGFR T790M-C797S-L858R, 1 mM ATP, 1 h, room temperature, read-out: IC50 (nM) @T790M- C797S - L858R
T3 construct: purchased Carna Bio
How it was run: as §1

EGFR L858R = biological target: T4, EGFR L858R (Homo sapiens, UniProt P00533, L858R); assay: Inhibition of EGFR L858R biochemical enzymatic activity (HTRF); conditions: 1 mM ATP, 1 h, room temperature, read-out: IC50 (nM) @L858R
T4 construct: purchased Carna Bio
How it was run: as §1

[1] = system: Ba/F3 cells expressing EGFR mutations; assay: Cell proliferation assay, Ba/F3 cells expressing EGFR mutations (CellTiter-Glo, 72 hours); format: cell-based; conditions: Mus musculus, BaF3, 72 h, CellTiter-Glo
How it was run: (§2)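 Ba/F3 cells carrying EGFR mutants (5000/well) or PC-9 cells (500/well) in RPMI1640 were dosed with compound series after overnight attachment and grown 72 h. Viability read by CellTiter-Glo, with day-0 counts subtracted; GI50 from curve fits of % proliferation versus DMSO control.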

EGFR (C797S L858R) = biological target: T5, EGFR (C797S L858R) (Homo sapiens, UniProt P00533, C797S/L858R); assay: Inhibition of EGFR (C797S L858R) biochemical enzymatic activity (HTRF); conditions: EGFR L858-C797S, 1 mM ATP, 1 h, room temperature, read-out: IC50 (nM) @L858-C797S
T5 construct: purchased signalchem
How it was run: as §1

EGFR wild type = biological target: T6, EGFR wild type (Homo sapiens, UniProt P00533); assay: Inhibition of EGFR wild type biochemical enzymatic activity (HTRF); conditions: EGFR WT, 1 mM ATP, 1 h, room temperature, read-out: IC50 (nM) @WT
T6 construct: purchased Carna Bio
How it was run: as §1

EGFR Exon19Del = biological target: T7, EGFR Exon19Del (Homo sapiens, UniProt P00533, DEL746-750); assay: Inhibition of EGFR Exon19Del biochemical enzymatic activity (HTRF); conditions: EGFR Del19, 1 mM ATP, 1 h, room temperature, read-out: IC50 @Del19
T7 construct: purchased Carna Bio
How it was run: as §1

EGFR Exon19Del/T790M = biological target: T8, EGFR Exon19Del/T790M (Homo sapiens, UniProt P00533, DEL746-750/T790M); assay: Inhibition of EGFR Exon19Del/T790M biochemical enzymatic activity (HTRF); conditions: EGFR Del19-T790M, 1 mM ATP, 1 h, room temperature, read-out: IC50 (nM) @Del19-T790M
T8 construct: purchased Carna Bio
How it was run: as §1

PC-9 = assay: Cell proliferation assay, PC-9 cells (CellTiter-Glo, 72 hours); format: cell-based; conditions: Homo sapiens, PC-9, 72 h, PC9 cells, CellTiter-Glo, read-out: PC9 GI50
How it was run: as §2

[2] = biological target: T9, EGFR[T790M/C797S/d746-750] (Homo sapiens, UniProt P00533, C797S/DEL746-750/T790M); assay: Inhibition of EGFR[T790M/C797S/d746-750] biochemical enzymatic activity (HTRF); conditions: EGFR T790M-C797S-Del19, 1 mM ATP, 1 h, room temperature, read-out: IC50 (nM) @T790M - C797S - Del19
T9 construct: purchased Carna Bio
How it was run: as §1

[3] = BaF3 cells, EGFR DEL19-C797S, read-out: DEL19-C797S/BaF3 GI50
[4] = BaF3 cells, EGFR DEL19-T790-C797S, read-out: DEL19-T790-C797S/BaF3 GI50
[5] = BaF3 cells, EGFR L858R, read-out: L858R/BaF3 GI50
[6] = BaF3 cells, EGFR L858R-C797S, read-out: L858R-C797S/BaF3 GI50
[7] = BaF3 cells, EGFR L858R-T790-C797S, read-out: L858R-T790-C797S/BaF3 GI50
[8] = BaF3 cells, EGFR L858R-T790M, read-out: L858R-T790M/BaF3 GI50
[9] = EGFR DEL19-T790M, read-out: DEL19-T790M GI50

T2 sequence (P00533 with tags, fused parts or gaps DEL746-750/C797S limits assumed): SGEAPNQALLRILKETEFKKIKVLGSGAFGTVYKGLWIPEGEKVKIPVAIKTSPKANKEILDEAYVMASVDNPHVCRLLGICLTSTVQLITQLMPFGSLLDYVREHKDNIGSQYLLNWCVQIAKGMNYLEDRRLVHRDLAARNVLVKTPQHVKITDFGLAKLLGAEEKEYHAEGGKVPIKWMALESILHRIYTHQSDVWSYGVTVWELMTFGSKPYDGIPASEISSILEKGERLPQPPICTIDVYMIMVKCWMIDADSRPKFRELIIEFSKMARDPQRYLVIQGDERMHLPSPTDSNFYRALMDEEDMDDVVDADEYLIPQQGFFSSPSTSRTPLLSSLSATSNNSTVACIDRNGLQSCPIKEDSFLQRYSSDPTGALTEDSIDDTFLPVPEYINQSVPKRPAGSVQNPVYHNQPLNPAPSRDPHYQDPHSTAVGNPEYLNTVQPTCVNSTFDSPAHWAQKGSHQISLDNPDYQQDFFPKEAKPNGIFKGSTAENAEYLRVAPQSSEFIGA
T5 sequence (P00533 25-1210 C797S/L858R): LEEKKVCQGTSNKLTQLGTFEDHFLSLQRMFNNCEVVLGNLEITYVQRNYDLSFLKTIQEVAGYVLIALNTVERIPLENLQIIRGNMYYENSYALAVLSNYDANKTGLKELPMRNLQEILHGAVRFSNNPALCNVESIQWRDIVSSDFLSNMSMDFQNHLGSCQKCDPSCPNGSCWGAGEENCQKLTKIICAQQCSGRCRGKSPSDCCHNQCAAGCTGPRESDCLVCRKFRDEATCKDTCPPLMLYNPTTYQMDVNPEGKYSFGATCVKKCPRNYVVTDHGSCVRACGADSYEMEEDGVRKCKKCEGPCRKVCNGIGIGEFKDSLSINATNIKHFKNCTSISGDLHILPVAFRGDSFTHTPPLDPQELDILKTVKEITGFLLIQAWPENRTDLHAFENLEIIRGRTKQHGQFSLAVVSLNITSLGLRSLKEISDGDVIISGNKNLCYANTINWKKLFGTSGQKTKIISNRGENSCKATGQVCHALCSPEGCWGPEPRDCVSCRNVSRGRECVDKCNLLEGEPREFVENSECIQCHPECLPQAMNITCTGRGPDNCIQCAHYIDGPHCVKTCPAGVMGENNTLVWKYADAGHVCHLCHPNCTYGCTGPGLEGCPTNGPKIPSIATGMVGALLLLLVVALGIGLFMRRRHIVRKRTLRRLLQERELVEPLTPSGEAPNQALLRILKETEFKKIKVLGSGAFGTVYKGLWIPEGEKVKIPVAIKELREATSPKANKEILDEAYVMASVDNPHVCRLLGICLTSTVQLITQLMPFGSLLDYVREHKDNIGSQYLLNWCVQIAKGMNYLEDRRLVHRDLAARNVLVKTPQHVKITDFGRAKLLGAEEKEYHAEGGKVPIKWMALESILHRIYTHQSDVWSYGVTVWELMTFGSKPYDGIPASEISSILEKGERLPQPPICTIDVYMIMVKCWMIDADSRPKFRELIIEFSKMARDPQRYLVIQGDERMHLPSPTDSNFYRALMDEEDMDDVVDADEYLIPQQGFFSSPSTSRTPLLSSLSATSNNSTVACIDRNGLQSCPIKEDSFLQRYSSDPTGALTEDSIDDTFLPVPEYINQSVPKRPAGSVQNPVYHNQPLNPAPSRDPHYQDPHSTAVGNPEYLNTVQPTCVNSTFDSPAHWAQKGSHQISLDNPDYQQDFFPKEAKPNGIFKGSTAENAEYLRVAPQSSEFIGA
T7 sequence (P00533 with tags, fused parts or gaps DEL746-750 limits assumed): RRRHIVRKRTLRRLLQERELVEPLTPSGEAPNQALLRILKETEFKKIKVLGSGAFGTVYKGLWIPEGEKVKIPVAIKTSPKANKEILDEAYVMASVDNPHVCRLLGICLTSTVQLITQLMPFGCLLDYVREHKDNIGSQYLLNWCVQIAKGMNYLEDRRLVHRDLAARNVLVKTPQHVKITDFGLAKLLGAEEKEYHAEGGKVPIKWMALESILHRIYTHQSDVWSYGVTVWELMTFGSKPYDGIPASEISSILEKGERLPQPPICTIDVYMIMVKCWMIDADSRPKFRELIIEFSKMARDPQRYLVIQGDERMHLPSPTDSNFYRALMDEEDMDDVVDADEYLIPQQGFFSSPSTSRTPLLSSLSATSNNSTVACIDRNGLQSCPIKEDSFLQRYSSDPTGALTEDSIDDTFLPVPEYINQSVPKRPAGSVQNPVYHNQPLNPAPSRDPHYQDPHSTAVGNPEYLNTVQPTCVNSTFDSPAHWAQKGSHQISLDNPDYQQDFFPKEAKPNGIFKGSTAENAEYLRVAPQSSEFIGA
T4 sequence (P00533 25-1210 L858R): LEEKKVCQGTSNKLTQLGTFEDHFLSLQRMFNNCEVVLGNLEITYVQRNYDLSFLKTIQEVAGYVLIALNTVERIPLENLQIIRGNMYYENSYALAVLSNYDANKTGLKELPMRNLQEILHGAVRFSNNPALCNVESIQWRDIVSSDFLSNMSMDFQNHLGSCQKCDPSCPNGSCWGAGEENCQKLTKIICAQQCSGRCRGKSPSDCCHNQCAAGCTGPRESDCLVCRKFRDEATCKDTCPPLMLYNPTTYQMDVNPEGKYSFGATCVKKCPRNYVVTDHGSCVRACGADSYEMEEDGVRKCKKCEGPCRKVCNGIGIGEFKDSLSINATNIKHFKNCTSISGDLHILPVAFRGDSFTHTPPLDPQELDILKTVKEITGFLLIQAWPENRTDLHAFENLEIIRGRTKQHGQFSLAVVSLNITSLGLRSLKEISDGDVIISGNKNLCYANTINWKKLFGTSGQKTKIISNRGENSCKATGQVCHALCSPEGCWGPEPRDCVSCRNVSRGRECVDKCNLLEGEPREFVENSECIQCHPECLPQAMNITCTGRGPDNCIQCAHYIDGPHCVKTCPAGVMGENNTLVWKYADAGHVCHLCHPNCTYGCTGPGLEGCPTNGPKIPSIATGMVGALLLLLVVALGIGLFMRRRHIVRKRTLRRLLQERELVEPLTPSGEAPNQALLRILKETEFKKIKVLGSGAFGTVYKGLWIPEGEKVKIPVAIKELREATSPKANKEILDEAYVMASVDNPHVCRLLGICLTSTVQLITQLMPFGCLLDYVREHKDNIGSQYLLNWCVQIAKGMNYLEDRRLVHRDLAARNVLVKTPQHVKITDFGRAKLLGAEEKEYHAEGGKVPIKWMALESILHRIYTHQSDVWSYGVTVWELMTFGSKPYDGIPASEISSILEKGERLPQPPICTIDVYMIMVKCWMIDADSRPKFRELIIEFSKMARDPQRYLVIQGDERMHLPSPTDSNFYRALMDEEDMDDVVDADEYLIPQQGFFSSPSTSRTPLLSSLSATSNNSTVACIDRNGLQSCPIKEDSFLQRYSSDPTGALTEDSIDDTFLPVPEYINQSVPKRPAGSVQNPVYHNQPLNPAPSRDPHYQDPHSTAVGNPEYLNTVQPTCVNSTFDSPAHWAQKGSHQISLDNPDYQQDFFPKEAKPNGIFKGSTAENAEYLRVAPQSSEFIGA
T8 sequence (P00533 with tags, fused parts or gaps DEL746-750/T790M limits assumed): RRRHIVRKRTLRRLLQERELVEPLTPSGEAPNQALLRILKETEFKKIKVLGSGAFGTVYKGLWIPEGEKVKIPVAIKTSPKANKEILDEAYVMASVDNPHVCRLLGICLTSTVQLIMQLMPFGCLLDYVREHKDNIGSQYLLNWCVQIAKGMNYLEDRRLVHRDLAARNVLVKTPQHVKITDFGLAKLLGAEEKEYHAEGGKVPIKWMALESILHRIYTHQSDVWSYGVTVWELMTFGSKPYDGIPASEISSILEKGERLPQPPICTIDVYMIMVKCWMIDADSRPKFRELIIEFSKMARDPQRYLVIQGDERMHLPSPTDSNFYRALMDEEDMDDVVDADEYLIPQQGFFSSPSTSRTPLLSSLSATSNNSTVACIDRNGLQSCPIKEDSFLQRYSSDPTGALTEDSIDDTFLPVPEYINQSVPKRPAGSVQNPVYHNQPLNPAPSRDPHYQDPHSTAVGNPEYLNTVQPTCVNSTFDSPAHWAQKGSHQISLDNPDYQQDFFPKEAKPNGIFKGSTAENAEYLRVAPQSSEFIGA
T9 sequence (P00533 with tags, fused parts or gaps DEL746-750/T790M/C797S limits assumed): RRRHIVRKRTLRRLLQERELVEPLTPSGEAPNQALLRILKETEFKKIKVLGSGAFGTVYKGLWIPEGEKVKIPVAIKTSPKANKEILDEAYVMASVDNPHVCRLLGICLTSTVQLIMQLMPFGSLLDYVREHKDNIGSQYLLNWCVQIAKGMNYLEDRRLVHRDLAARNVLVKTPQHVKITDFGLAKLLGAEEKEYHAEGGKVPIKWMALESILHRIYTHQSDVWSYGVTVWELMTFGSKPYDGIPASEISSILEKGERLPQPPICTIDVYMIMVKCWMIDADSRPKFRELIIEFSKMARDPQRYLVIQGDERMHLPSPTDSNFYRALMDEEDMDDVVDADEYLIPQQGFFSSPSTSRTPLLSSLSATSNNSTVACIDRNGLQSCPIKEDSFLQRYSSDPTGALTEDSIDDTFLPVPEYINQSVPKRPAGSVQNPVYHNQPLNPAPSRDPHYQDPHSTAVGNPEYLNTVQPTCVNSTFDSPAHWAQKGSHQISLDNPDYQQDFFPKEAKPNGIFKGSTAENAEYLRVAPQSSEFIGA

Row | Structure (SMILES) | IC50 (EGFR L858R/T790M) [nM] | IC50 (EGFR (d746-750 C797S)) [nM] | GI50 (A-431) [nM] | IC50 (EGFR[T790M/C797S/L858R]) [nM] | IC50 (EGFR L858R) [nM] | GI50 [1, 3] [nM] | GI50 [1, 4] [nM] | GI50 [1, 5] [nM] | GI50 [1, 6] [nM] | GI50 [1, 7] [nM] | GI50 [1, 8] [nM] | GI50 [1, 9] [nM] | IC50 (EGFR (C797S L858R)) [nM] | IC50 (EGFR wild type) [nM] | IC50 (EGFR Exon19Del) [nM] | IC50 (EGFR Exon19Del/T790M) [nM] | GI50 (PC-9) [nM] | IC50 [2] [nM]
1 | C[C@@H]1CCCOc2c(cnn2C)-c2cc(cn(C)c2=O)C(=O)Nc2nc3ccc(N(C)CCN(C)C)cc3n2C1 [Example A36] | 8 | 2.1 | 591 | 4.9 | 30 | 2.1 | 6 | 5.1 | 5.9 | 4.7 | 23 | 7.8 | 14 | 193 | 3 | 2.5 | 14 | 2.4
2 | C[C@@H]1CCCOc2c(cnn2C)-c2cc(cn(C)c2=O)C(=O)Nc2nc3ccc(N4CC(N(C)C)C4)cc3n2C1 [Example A37] | 6.5 | 1.7 | 166 | 2.3 | 40 | 0.7 | 3.3 | 3.2 | 3.8 | 2.5 | 10 | 5.5 | 13 | 281 | 3.4 | 1.4 | 4.3 | 1.2
3 | C[C@@H]1CCCOc2c(cnn2C)-c2cc(cn(C)c2=O)C(=O)Nc2nc3ccc(N4CCN(C5COC5)CC4)cc3n2C1 [Example A39] | 14 | 2.8 | 290 | 8.2 | 74 | 1.9 | 4.7 | 5.2 | 6.9 | 5.4 | 16 | 8.4 | 30 | 1520 | 5.9 | 5 | 7.6 | 5.1
4 | C[C@@H]1CCCOc2c(cnn2C)-c2cc(cn(C)c2=O)C(=O)Nc2nc3ccc(N4CC5(CN(C)C5)C4)cc3n2C1 [Example A40] | 6.1 | 2.3 | 642 | 5.2 | 11 | 1.7 | 4.2 | 4 | 5.4 | 4.7 | 17 | 7.7 | 6.7 | 71 | 4.4 | 4.5 | 17 | 4.3
5 | C[C@@H]1CCCOc2c(cnn2C)-c2cc(cn(C)c2=O)C(=O)Nc2nc3ccc(N4CC5(CCN(C)C5)C4)cc3n2C1 [Example A42] | 6.8 | 2.5 | 279 | 5.1 | 8.9 | 0.47 | 1.8 | 0.75 | 2.1 | 1.6 | 8.7 | 2.2 | 6.7 | 42 | 3 | 5.4 | 2.5 | 4.5
6 | C[C@@H]1CCCOc2c(cnn2C)-c2cc(cn(C)c2=O)C(=O)Nc2nc3ccc(N4CCC5(CN(C)C5)C4)cc3n2C1 [Example A43] | 13 | 2.2 | 508 | 7.1 | 21 | 1 | 3.6 | 2.6 | 3.4 | 2.5 | 9.5 | 5.2 | 8.9 | 295 | 4.5 | 3.7 | 5.7 | 4.4
7 | C[C@@H]1CCCOc2c(cnn2C)-c2cc(cn(C)c2=O)C(=O)Nc2nc3ccc(N4CC5(CN(C)CCO5)C4)cc3n2C1 [Example A47] | 9.5 | 2.5 | 200 | 4.9 | 46 | 1.7 | 9.7 | 4 | 3.2 | 3.4 | 17 | 12 | 20 | 1130 | 4.5 | 4.2 | 7 | 4.2

More lines, in order of falling IC50 (EGFR L858R/T790M), values ahead:

Row | IC50 (EGFR L858R/T790M) [nM] | IC50 (EGFR (d746-750 C797S)) [nM] | GI50 (A-431) [nM] | IC50 (EGFR[T790M/C797S/L858R]) [nM] | IC50 (EGFR L858R) [nM] | GI50 [1, 3] [nM] | GI50 [1, 4] [nM] | GI50 [1, 5] [nM] | GI50 [1, 6] [nM] | GI50 [1, 7] [nM] | GI50 [1, 8] [nM] | GI50 [1, 9] [nM] | IC50 (EGFR (C797S L858R)) [nM] | IC50 (EGFR wild type) [nM] | IC50 (EGFR Exon19Del) [nM] | IC50 (EGFR Exon19Del/T790M) [nM] | GI50 (PC-9) [nM] | IC50 [2] [nM] | Structure (SMILES)
8 | 15 | 3 | 232 | 8.8 | 34 | 2 | 14 | 4.4 | 7 | 5.3 | 27 | 16 | 15 | 236 | 4.9 | 3.3 | 14 | 3.1 | C[C@@H]1CCCOc2c(cnn2C)-c2cc(cn(C)c2=O)C(=O)Nc2nc3ccc(N4CC5(CCCN5C)C4)cc3n2C1 [Example A44]
9 | 8.5 | 2.2 | 221 | 5.7 | 14 | 1.2 | 6.8 | 3.1 | 2.4 | 2 | 12 | 8.1 | 8.5 | 104 | 2.6 | 4.1 | 5.4 | 3.9 | C[C@@H]1CCCOc2c(cnn2C)-c2cc(cn(C)c2=O)C(=O)Nc2nc3ccc(N4CC(N5CCN(C)CC5)C4)cc3n2C1 [Example A46]
10 | 5.1 | 1.7 | 314 | 3.2 | 10 | 0.33 | 1.1 | 0.47 | 1.4 | 0.57 | 2.9 | 1.4 | 5.3 | 74 | 2.3 | 3.5 | 2.9 | 3.1 | C[C@@H]1CCCOc2c(cnn2C)-c2cc(cn(C)c2=O)C(=O)Nc2nc3ccc(N4CC5(CCN(C)CC5)C4)cc3n2C1 [Example A41]
11 | 2.7 | 0.81 | 315 | 1.7 | 9.7 | 1.4 | 4.8 | 4.1 | 4.2 | 3.2 | 13 | 7.3 | 2.9 | 159 | 1.3 | 1.6 | 6.2 | 1.7 | C[C@@H]1CCCOc2c(cnn2C)-c2cc(cn(C)c2=O)C(=O)Nc2nc3ccc(N4CCC(N(C)C)C(F)C4)cc3n2C1 (stereo partly drawn) [Example A38]
